Read-outs that look alike come from different tables or passages of the source.
Tests used:
[1] = target: MRGPRX4 (Homo sapiens, UniProt Q96LA9); assay: MRGPR X4 antagonist activity, IP-One Gq HTRF assay in stably transfected HEK cells (versus agonist bilirubin, deoxycholic acid, conjugated bilirubin, urobilin, obeticholic acid or BAR502); type: cell-based; design: expressed in transfected cells; host or cells: HEK cells, stably transfected
How it was run: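 Stably transfected HEK cells expressing human MRGPR X4, seeded overnight, given compounds as 10-point 1:3 curves from 10 uM final top, incubated 1 h at 37° C then 30 min at room temperature. IP-1 measured by IP-One Gq HTRF. IC50 derived from the HTRF ratio.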

[2] = Mouse pharmacokinetics study, 50 mg/kg oral gavage, plasma LC-MS/MS; type: in vivo; conditions: male C57BL/6 mice, non-fasted
Description: Compounds were formulated in 5% DMSO, 5% Solutol, and […] phosphate buffered saline at a concentration of 5 mg/mL, and typically appeared as a fine homogenous suspension. Male C57BL/6 mice (n=3/compound) were administered a 50 mg/kg dose of each compound by oral gavage under a non-fasted condition. Blood samples were collected via the saphenous vein onto K2-EDTA at 0.25, 0.5, 1, 2, 4, 8 and 24 hours after dosing, and plasma was prepared and stored at […] until analysis. Plasma sample preparation for analysis was done by protein precipitation using acetonitrile (including Celecoxib as an internal standard) followed by centrifugation. Compound concentrations were determined in extracted plasma using LC-MS/MS relative to an 8 point standard curve covering the 1 to 3000 ng/mL range. Non-compartmental analysis using Phoenix WinNonlin was used to estimate pharmacokinetic parameters including area under the curve, clearance, and half-life. The administered dose was confirmed by analysis of residual dosing material by UPLC-UV relative to a single point calibration sample.

[3] = read-out: IC50 (10 μM BAR502) nM, MRGPRX4 antagonists versus 10 μM BAR502 agonist
[4] = versus 10 μM Bilirubin agonist, HEK cells expressing human MRGPR X4, read-out: MRGPR4 Antagonist Activity
[5] = versus 10 μM Bilirubin agonist, read-out: IC50 (Bilirubin agonist)
[6] = versus 20 μM deoxycholic acid, read-out: IC50 (Deoxycholic Acid agonist)
[7] = versus 20 μM obeticholic acid, read-out: IC50 (Obeticholic Acid Agonist)
[8] = versus 50 μM urobilin, read-out: IC50 (Urobilin Agonist)
[9] = versus 100 μM conjugated bilirubin, read-out: IC50 (Conjugated Bilirubin Agonist)

Sequence of MRGPRX4 (Q96LA9 whole entry): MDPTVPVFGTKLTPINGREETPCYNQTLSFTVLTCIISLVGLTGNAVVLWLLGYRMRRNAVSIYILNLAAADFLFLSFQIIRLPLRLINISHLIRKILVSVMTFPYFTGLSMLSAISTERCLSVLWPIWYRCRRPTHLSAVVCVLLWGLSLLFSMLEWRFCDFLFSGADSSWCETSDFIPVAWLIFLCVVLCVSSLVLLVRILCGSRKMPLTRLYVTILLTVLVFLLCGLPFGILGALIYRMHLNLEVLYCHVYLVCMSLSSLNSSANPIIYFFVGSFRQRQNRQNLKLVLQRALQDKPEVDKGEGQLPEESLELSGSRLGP

For `O=C(O)c1cccc(COc2ccc(C(F)(F)F)cc2Cl)c1F` [Compound 1-55, 3-((2-chloro-4-(trifluoromethyl)phenoxy)methyl)-2-fluorobenzoic acid], the IC50 [1, 3] was 16 nM, the IC50 [1, 4] was under 100 nM and the IC50 [1, 5] was 6 nM. For the same compound, the IC50 [1, 6] was 22 nM, the IC50 [1, 7] was 11 nM and the IC50 [1, 8] was 23 nM. It also gave an IC50 [1, 9] of 14 nM, an AUC [2] of 2150 μMxhr and a Cmax [2] of 230 µM. For the same compound, the T-1/2 [2] was 11.2 h.

For `O=C(O)c1cccc(COc2ccc(Cl)cc2Cl)n1` [Compound 1-115], the IC50 [1, 4] was under 100 nM, the IC50 [1, 5] was 81 nM and the IC50 [1, 6] was 230 nM. For the same compound, the IC50 [1, 7] was 47 nM, the IC50 [1, 9] was 180 nM and the AUC [2] was 1206 μMxhr. For the same compound, the Cmax [2] was 306 µM and the T-1/2 [2] was 3.0 h.

`Cc1cc(COc2ccc(C(F)(F)F)cc2C)cc(C(=O)O)c1` [Compound 4-11] gave an IC50 [1, 4] of under 100 nM, an IC50 [1, 5] of 24 nM and an IC50 [1, 6] of 63 nM. It also gave an IC50 [1, 7] of 25 nM, an IC50 [1, 8] of 35 nM and an IC50 [1, 9] of 41 nM. For the same compound, the AUC [2] was 572 μMxhr, the Cmax [2] was 257 µM and the T-1/2 [2] was 3.6 h.

In the case of `O=C(O)c1cccc(COc2ccc(C(F)(F)F)cc2Cl)c1` [Compound 1-29], the IC50 [1, 4] is reported as under 100 nM, the IC50 [1, 5] is reported as 20 nM and the IC50 [1, 6] is reported as 46 nM. It also gave an IC50 [1, 7] of 25 nM, an IC50 [1, 8] of 16 nM and an IC50 [1, 9] of 46 nM. It also gave an AUC [2] of 615 μMxhr, a Cmax [2] of 196 µM and a T-1/2 [2] of 4.6 h.

In the case of `O=C(O)c1cc(F)cc(COc2ccc(C(F)(F)F)cc2Cl)c1` [Compound 1-65, 3-((2-chloro-4-(trifluoromethyl)phenoxy)methyl)-5-fluorobenzoic acid], the IC50 [1, 3] is reported as 13 nM, the IC50 [1, 4] is reported as under 100 nM and the IC50 [1, 5] is reported as 9 nM. For the same compound, the IC50 [1, 6] was 28 nM, the IC50 [1, 7] was 23 nM and the IC50 [1, 8] was 21 nM. The IC50 [1, 9] was 17 nM, the AUC [2] was 1037 μMxhr and the Cmax [2] was 220 µM. For the same compound, the T-1/2 [2] was 4.8 h.

For `O=C(O)c1cc(COc2ccc(C(F)(F)F)cc2Cl)ccc1F` [Compound 1-85, 5-((2-chloro-4-(trifluoromethyl)phenoxy)methyl)-2-fluorobenzoic acid], the IC50 [1, 4] was under 100 nM, the IC50 [1, 5] was 20 nM and the IC50 [1, 6] was 30 nM. For the same compound, the IC50 [1, 7] was 15 nM, the IC50 [1, 8] was 41 nM and the IC50 [1, 9] was 29 nM. The AUC [2] was 1069 μMxhr, the Cmax [2] was 239 µM and the T-1/2 [2] was 4.7 h.

In the case of `O=C(O)c1cccc(COc2ccc(Cl)cc2Cl)c1` [Compound 1-18], the IC50 [1, 3] is reported as 48 nM, the IC50 [1, 4] is reported as under 100 nM and the IC50 [1, 5] is reported as 57 nM. For the same compound, the IC50 [1, 6] was 130 nM, the IC50 [1, 7] was 40 nM and the IC50 [1, 8] was 230 nM. It also gave an IC50 [1, 9] of 130 nM, an AUC [2] of 376 μMxhr and a Cmax [2] of 113 µM. It also gave a T-1/2 [2] of 4.2 h.

`Cc1cc(OCc2cccc(C(=O)O)c2)ccc1OC(F)(F)F` [Compound 1-139] showed an IC50 [1, 4] of over 2500 nM.

Work on `O=C(O)c1cccc(CNc2ccc(C(F)(F)F)cc2Cl)n1` [Compound 12-3] yielded an IC50 [1, 4] of under 100 nM.

`O=C(O)c1cccc(COc2ccc3sccc3c2Cl)c1F` [Compound 4-26] gave an IC50 [1, 4] of under 100 nM.

In the case of `FC(F)(F)c1ccc(OCc2cccc(-c3cnc[nH]3)c2)c(Cl)c1` [Compound 47-1, 5-(3-((2-chloro-4-(trifluoromethyl)phenoxy)methyl)phenyl)-1H-imidazole], the IC50 [1, 4] is reported as 500 to 1000 nM.

In the case of `O=C(NC1CCC1)c1cccc(COc2ccc(C(F)(F)F)cc2Cl)c1` [Compound 52-24], the IC50 [1, 4] is reported as 100 to 500 nM.

`N#Cc1ccc(OCc2cccc(C(=O)O)c2)cc1Cl` [Compound 1-90] gave an IC50 [1, 4] of 100 to 500 nM.

Compound `FC(F)(F)c1ccc(OCc2cccc(-c3nnn[nH]3)n2)c(Cl)c1` [Compound 17-6] has an IC50 [1, 4] of under 100 nM.

With `O=C(O)c1cc(F)cc(COc2ccc3ccccc3c2)c1` [Compound 9-3] the IC50 [1, 4] was under 100 nM.

`O=C(O)c1cc(COc2ccc(C(F)(F)F)cc2Cl)ccc1Cl` [Compound 1-83] showed an IC50 [1, 4] of 100 to 500 nM.

Compound `O=C(O)c1cccc(COc2cccc(Br)c2)c1` [Compound 1-109] has an IC50 [1, 4] of 500 to 1000 nM.

Work on `O=C(O)c1cccc(COc2ccc3occc3c2)c1` [Compound 1-131] yielded an IC50 [1, 4] of 100 to 500 nM.

For `O=C(O)c1nc(COc2ccc(C(F)(F)F)c(Cl)c2)ccc1F` [Compound 4-19], the IC50 [1, 4] was under 100 nM.

From patent US11840521B2, “Modulators of Mas-related G-protein receptor X4 and related products and methods” (Escient Pharmaceuticals, Inc., priority 2019, dated 2023)
